Experimental data reported in patent publication US10272095B2 (GlaxoSmithKline Intellectual Property Development Limited, priority 2015, dated 2019).
Structures can show the parent of a compound that is named as a salt.

test system: NQO1 specific enzyme activity in BEAS-2B cells; assay: BEAS-2B NQO1 MTT assay; assay type: cell-based; conditions: Homo sapiens, BEAS-2B, 48 h, NQO1 specific enzyme activity induction in BEAS-2B cells, 48 hours; read-out: EC50
Method in brief: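 BEAS-2B cells exposed to compound 48 h at 37° C, 5% CO2, then lysed. NQO1 activity read kinetically in lysate with MTT cocktail (absorbance 570 nm, 30 min); Cell Titer Glo run on a lysate aliquot. pEC50 from ΔOD/min versus log concentration, 3-parameter fit.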

For CCn1cc(CCC(CC(=O)O)c2ccc3c(c2)[C@@H]2[C@@H](CC(=O)N2CC2CCCCC2)C3)nn1 (stereo partly drawn) [Example 3, 3-[(3aR,8bS)-1-(cyclohexylmethyl)-2-oxo-1H,2H,3H,3aH,4H,8bH-indeno[1,2-b]pyrrol-7-yl]-5-(1-ethyl-1H-1,2,3-triazol-4-yl)pentanoic Acid], which EC50 is on record?
Its EC50 is 1000 to 10000 nM.

How did the EC50 turn out when Cc1c(C(c2ccc3c(c2)C(N2Cc4cccnc4O[C@@H](C)C2)CC3)C(C)(C)C(=O)O)ccc2c1nnn2C (stereo partly drawn) [Example 49, 3-(1,4-Dimethyl-1H-benzo[d][1,2,3]triazol-5-yl)-2,2-dimethyl-3-(3-((S)-2-methyl-2,3-dihydropyrido[3,2-f][1,4]oxazepin-4(5H)-yl)-2,3-dihydro-1H-inden-5-yl)propanoic Acid, Formic Acid Salt] was run?
The EC50 was 10 to 100 nM.

For Cc1c(C(CC(=O)O)c2ccc3c(c2)C(N2Cc4ccc(F)cc4OC(C)(C)C2)CC3)ccc2c1nnn2C (stereo not drawn) [Example 25, 3-(1,4-Dimethyl-1H-benzo[d][1,2,3]triazol-5-yl)-3-(3-(8-fluoro-2,2-dimethyl-2,3-dihydrobenzo[f][1,4]oxazepin-4(5H)-yl)-2,3-dihydro-1H-inden-5-yl)propanoic Acid], which EC50 is on record?
The EC50 was 1 to 10 nM.

Cc1c(C(CC(=O)O)c2ccc3c(c2)C(N2Cc4ccccc4OC(C)(C)C2)CC3)ccc2c1nnn2C (stereo not drawn) [Example 40, 3-(1,4-Dimethyl-1H-benzo[d][1,2,3]triazol-5-yl)-3-(3-(2,2-dimethyl-2,3-dihydrobenzo[f][1,4]oxazepin-4(5H)-yl)-2,3-dihydro-1H-inden-5-yl)propanoic Acid, Formic Acid Salt] was tested. Which EC50 did it give?
The EC50 was 1 to 10 nM.

How did the EC50 turn out when Cc1c(C(CC(=O)O)c2ccc3c(c2)C(N2Cc4cnccc4OC(C)(C)C2)CC3)ccc2c1nnn2C (stereo not drawn) [Example 48, 3-(1,4-Dimethyl-1H-benzo[d][1,2,3]triazol-5-yl)-3-(3-(2,2-dimethyl-2,3-dihydropyrido[3,4-f][1,4]oxazepin-4(5H)-yl)-2,3-dihydro-1H-inden-5-yl)propanoic Acid, Formic Acid Salt] was run?
Its EC50 is 10 to 100 nM.

Cc1c(C(CC(=O)O)c2ccc3c(c2)C(N2Cc4cccnc4O[C@H](C)C2)CC3)ccc2c1nnn2C (stereo partly drawn) [Example 61, 3-(1,4-Dimethyl-1H-benzo[d][1,2,3]triazol-5-yl)-3-(3-((R)-2-methyl-2,3-dihydropyrido[3,2-f][1,4]oxazepin-4(5H)-yl)-2,3-dihydro-1H-inden-5-yl)propanoic Acid, Formic Acid Salt] was tested. Which EC50 did it give?
Its EC50 is 1000 to 10000 nM.

COc1cc(C(CC(=O)O)c2ccc3c(c2)C(N2Cc4cccnc4OC(C)(C)C2)CC3)cc2nnn(C)c12 (stereo not drawn) [Example 55, 3-(3-(2,2-Dimethyl-2,3-dihydropyrido[3,2-f][1,4]oxazepin-4(5H)-yl)-2,3-dihydro-1H-inden-5-yl)-3-(7-methoxy-1-methyl-1H-benzo[d][1,2,3]triazol-5-yl)propanoic Acid, Formic Acid Salt] was tested. Which EC50 did it give?
The EC50 was 100 to 1000 nM.

How did the EC50 turn out when CC[C@@H]1CN([C@@H]2CCc3ccc([C@@H](c4ccc5c(nnn5C)c4C)C(C)(C)C(=O)O)cc32)Cc2cnccc2O1 (relative stereo) [Example 71, rel-(S)-3-(1,4-Dimethyl-1H-benzo[d][1,2,3]triazol-5-yl)-3-(rel-(R)-3-((R)-2-ethyl-2,3-dihydropyrido[3,4-f][1,4]oxazepin-4(5H)-yl)-2,3-dihydro-1H-inden-5-yl)-2,2-dimethylpropanoic acid] was run?
Its EC50 is 1 to 10 nM.

For Cc1c(C(CC(=O)O)c2ccc3c(c2)C2C(CCN2C(=O)OC(C)(C)C)C3)ccc2c1nnn2C (stereo not drawn) [Example 6, 3-{1-[(tert-Butoxy)carbonyl]-1H,2H,3H,3aH,4H,8bH-indeno[1,2-b]pyrrol-7-yl}-3-(1,4-dimethyl-1H-1,2,3-benzotriazol-5-yl)propanoic Acid], which EC50 is on record?
The EC50 was 100 to 1000 nM.

How did the EC50 turn out when Cc1c(C(CC(=O)O)c2ccc3c(c2)[C@@H]2[C@@H](CC(=O)N2CC2CCCCC2)C3)ccc2c1nnn2C (stereo partly drawn) [Example 1, 3-[(3aR,8bS)-1-(cyclohexylmethyl)-2-oxo-1H,2H,3H,3aH,4H,8bH-indeno[1,2-b]pyrrol-7-yl]-3-(1,4-dimethyl-1H-1,2,3-benzotriazol-5-yl)propanoic Acid] was run?
The EC50 was 100 to 1000 nM.

How did the EC50 turn out when Cc1c(C(CC(=O)O)c2ccc3c(c2)C2C(C3)OC(=O)N2CC2CCCCC2)ccc2c1nnn2C (stereo not drawn) [Example 20, 3-(3-(Cyclohexylmethyl)-2-oxo-3,3a,8,8a-tetrahydro-2H-indeno[1,2-d]oxazol-5-yl)-3-(1,4-dimethyl-1H-benzo[d][1,2,3]triazol-5-yl)propanoic Acid] was run?
Its EC50 is 100 to 1000 nM.

CCCC1CCC(CN2C(=O)CC3Cc4ccc(C(CC(=O)O)c5ccc6c(nnn6C)c5C)cc4C32)CC1 (stereo not drawn) [Example 5, 3-(1,4-Dimethyl-1H-1,2,3-benzotriazol-5-yl)-3-{2-oxo-1-[(4-propylcyclohexyl)methyl]-1H,2H,3H,3aH,4H,8bH-indeno[1,2-b]pyrrol-7-yl}propanoic Acid] was tested. Which EC50 did it give?
The EC50 was 1 to 10 nM.

For Cc1ccc2c(c1)CN(C1CCc3ccc(C(CC(=O)O)c4ccc5c(nnn5C)c4C)cc31)C[C@@H](C)O2 (stereo partly drawn) [Example 47, 3-(1,4-Dimethyl-1H-benzo[d][1,2,3]triazol-5-yl)-3-(3-((R)-2,7-dimethyl-2,3-dihydrobenzo[f][1,4]oxazepin-4(5H)-yl)-2,3-dihydro-1H-inden-5-yl)propanoic Acid, Formic Acid Salt], which EC50 is on record?
The EC50 was 10 to 100 nM.

How did the EC50 turn out when CC[C@@H]1CN([C@@H]2CCc3ccc([C@H](CC(=O)O)c4ccc5c(nnn5C)c4C)cc32)Cc2ccccc2O1 (relative stereo) [Example 82, rel-(S)-3-(1,4-Dimethyl-1H-benzo[d][1,2,3]triazol-5-yl)-3-(rel-(R)-3-((R)-2-ethyl-2,3-dihydrobenzo[f][1,4]oxazepin-4(5H)-yl)-2,3-dihydro-1H-inden-5-yl)propanoic acid] was run?
The EC50 was 10 to 100 nM.

Cc1c(C(c2ccc3c(c2)C(N2Cc4cnccc4OC(C)(C)C2)CC3)C(C)(C)C(=O)O)ccc2c1nnn2C (stereo not drawn) [Example 33, 3-(1,4-Dimethyl-1H-benzo[d][1,2,3]triazol-5-yl)-3-(3-(2,2-dimethyl-2,3-dihydropyrido[3,4-f][1,4]oxazepin-4(5H)-yl)-2,3-dihydro-1H-inden-5-yl)-2,2-dimethylpropanoic Acid, Trifluoroacetic Acid Salt] was tested. Which EC50 did it give?
The EC50 was 1 to 10 nM.

How did the EC50 turn out when Cc1c([C@@H](c2ccc3c(c2)[C@H](N2Cc4ccccc4OC(C)(C)C2)CC3)C(C)(C)C(=O)O)ccc2c1nnn2C (stereo in doubt) [Example 79, rel-(R)-3-(1,4-Dimethyl-1H-benzo[d][1,2,3]triazol-5-yl)-3-(rel-(R)-3(2,2-dimethyl-2,3-dihydrobenzo[f][1,4]oxazepin-4(5H)-yl)-2,3-dihydro-1H-inden-5-yl)-2,2-dimethylpropanoic acid] was run?
Its EC50 is 1 to 10 nM.

Cc1c([C@H](c2ccc3c(c2)[C@H](N2Cc4cnccc4OC(C)(C)C2)CC3)C(C)(C)C(=O)O)ccc2c1nnn2C [Example 86, 3-(1,4-Dimethyl-1H-benzo[d][1,2,3]triazol-5-yl)-3-(3-(2,2-dimethyl-2,3-dihydropyrido[3,4-f][1,4]oxazepin-4(5H)-yl)-2,3-dihydro-1H-inden-5-yl)-2,2-dimethylpropanoic Acid] was tested. Which EC50 did it give?
The EC50 was under 1 nM.

For CCCC(C)C(=O)N1CCC2Cc3ccc(C(CC(=O)O)c4ccc5c(nnn5C)c4C)cc3C21 (stereo not drawn) [Example 10, 3-(1,4-Dimethyl-1H-1,2,3-benzotriazol-5-yl)-3-[1-(2-methylpentanoyl)-1H,2H,3H,3aH,4H,8bH-indeno[1,2-b]pyrrol-7-yl]propanoic Acid], which EC50 is on record?
The EC50 was 1000 to 10000 nM.
